Literature values, collected in US20020177585A1, “Uses of targeted oxidative therapeutic formulation in arteriosclerosis” (priority 2001, published 2002).

How the values were obtained:
[1] = test system: peroxide-sensitive E. coli; conditions: infused into the blood of infected rabbits
E. coli = conditions: increasing concentration of peroxide ex-vivo

Compound: OO [hydrogen peroxide, Hydrogen peroxide]
- bactericidal effect [1]: no bactericidal effect
- direct bactericidal activity (E. coli): no evidence of direct bactericidal activity
